Results published in patent publication US20260294915A1, “COMBINATION THERAPY COMPRISING A MAT2A INHIBITOR AND A TOPOISOMERASE INHIBITOR, A SPLICING INHIBITOR SULFONAMIDE, OR A KIF18 INHIBITOR” (IDEAYA BIOSCIENCES, INC., priority 2023, published 2026).
Marks after values point to notes of the source that are not given here.

What was measured:
Experiment in all cases: 10-day proliferation (CTG), SPLAM titration + 1000 nM Compound A, Bliss (Example 5; Tables 12-19)
Format in all cases: cell-based
Parameters in all cases: key: GDI scale -100 to 100; 0 = cell number at T0; <0 cytotoxic
Conditions in all cases: alone or + 1 uM Cmpd A
UMUC5 = test system: UMUC5
Procedure: (§1) Synergy was measured across the Indisulam titration with 1000 nM Compound A by Bliss Independence analysis. Bliss scores >10 are indicated by “*” and are considered synergistic. […] Synergy as reported using Bliss may be underrepresented within cytotoxic dose ranges. Growth death index values are shown for the combination titration and each single agent Compound A (Cmpd A) and Indisulam on a scale of −100 to 100 with the midpoint (0) being the number of cells at the beginning of the combination (T0). Scores less than 0 are indicated with “**” and are representative of a cytotoxic response. Bliss and GDI values are shown for five MTAP-deficient cell lines: NCI-1H838 (12A), SW900 (12B), RT112/84 (12C), UMUC5 (121D), and UMUC11 (12E).
(§2) A 10-day proliferation assay was performed in a panel of 5 MTAP-deficient and 2 wild type non-small cell lung and bladder cancer cell lines. Optimal cell seeding for all cell lines was determined by assessing the growth over a range of seeding densities in a 384-well format to identify conditions that permitted proliferation for 10 days. Cells were then plated at the optimal seeding density and treated with 20-point, two-fold dilution series of each of four structurally different SPLAMs in combination with a 1000 nM fixed concentration of Compound A. Single agent titrations for Compound A and each SPLAM were included for comparison. Concentrations tested for each SPLAM alone or in combination ranged from 0.04 nM to 20,000 nM. A plate of cells was harvested at the time of compound addition to quantify the number of cells at the start of the combination (T0). For cell quantification, the harvested cells were lysed with Promega CellTiter-Glo (CTG) reagent according to the manufacturer's protocol and the chemiluminescent signal was detected as described in Example 1 above. Cells were incubated with the drug combinations at 37° C. with 5% CO2 for 10 days. Cells were then lysed with CTG and the chemiluminescent signal was measured.
(§3) CTG values obtained after the 10-day treatment were background subtracted and expressed as a percent of the T0 value set at 100%. Data were plotted against compound concentration and fit with a four-parameter equation to generate single agent dose response curves. Percent inhibition was determined for each combination and single agent concentration compared to a DMSO control. In addition, the overall net growth or death of the cells was calculated and reported as a growth death index (GDI) value on a scale of −100 to 100 with the midpoint (0) being the number of cells at the beginning of the combination (T0).
(§4) Predicted inhibition was calculated using (Ea+Eb)−(Ea*Eb) where E equals the effect (inhibition) of each single agent (a and b). A difference between the observed inhibition percentage and the predicted inhibition percentage greater than 10% was considered synergistic. A Bliss score was only reported for combinations eliciting >20% growth inhibition (GDI value <80). Since Bliss is calculated based on growth inhibition, scores within cytotoxic dose ranges may not accurately reflect synergistic cytoxicity.
(§5) Synergy was measured across the E7820 titration with 1000 nM Compound A by Bliss Independence analysis. Bliss scores >10 are indicated by “*” and are considered synergistic. […] Synergy as reported using Bliss may be underrepresented within cytotoxic dose ranges. Growth death index values are shown for the combination titration and each single agent Compound A (Cmpd A) and Indisulam on a scale of −100 to 100 with the midpoint (0) being the number of cells at the beginning of the combination (T0). Scores less than 0 are indicated by “**” and are representative of a cytotoxic response. Bliss and GDI values are shown for five MTAP-deficient cell lines: NCI-1H838 (14A), SW900 (14B), RT112/84 (14C), UMUC5 (141)), and UMUC11 (14E).
(§6) Synergy was measured across the Chloroquinoxaline Sulfonamide titration with 1000 nM Compound A by Bliss Independence analysis.

RT112/84 = test system: RT112/84
Procedure: as §1, §2, §3, §4, §5, §6

UMUC11 = test system: UMUC11
Procedure: as §1, §2, §3, §4, §5, §6

SW900 = test system: SW900
Procedure: as §1, §2, §3, §4, §5, §6

SMILES: NS(=O)(=O)c1ccc(S(=O)(=O)Nc2cccc3c(Cl)c[nH]c23)cc1 [Indisulam, N-(3-chloro-1H-indol-7-yl)benzene-1,4-disulfonamide]
- GDI (UMUC5; SPLAM 0.04 nM): 100
- GDI (UMUC5; SPLAM 0.1 nM): 100
- GDI (UMUC5; SPLAM 0.2 nM): 100
- GDI (UMUC5; SPLAM 0.3 nM): 100
- GDI (UMUC5; SPLAM 0.6 nM): 100
- GDI (UMUC5; SPLAM 1.2 nM): 98
- GDI (UMUC5; SPLAM 2.4 nM): 100
- GDI (UMUC5; SPLAM 4.9 nM): 100
- GDI (UMUC5; SPLAM 9.8 nM): 100
- GDI (UMUC5; SPLAM 19.5 nM): 100
- GDI (UMUC5; SPLAM 39.1 nM): 100
- GDI (UMUC5; SPLAM 78.1 nM): 100
- GDI (UMUC5; SPLAM 156.3 nM): 94
- GDI (UMUC5; SPLAM 312.5 nM): 69
- GDI (UMUC5; SPLAM 625 nM): 26
- GDI (UMUC5; SPLAM 1250 nM): 5
- GDI (UMUC5; SPLAM 2500 nM): 3
- GDI (UMUC5; SPLAM 5000 nM): 3
- GDI (UMUC5; SPLAM 10000 nM): 2
- GDI (UMUC5; SPLAM 20000 nM): 2
- GDI (RT112/84; SPLAM 0.04 nM): 98
- GDI (RT112/84; SPLAM 0.1 nM): 100
- GDI (RT112/84; SPLAM 0.2 nM): 100
- GDI (RT112/84; SPLAM 0.3 nM): 100
- GDI (RT112/84; SPLAM 0.6 nM): 96
- GDI (RT112/84; SPLAM 1.2 nM): 95
- GDI (RT112/84; SPLAM 2.4 nM): 100
- GDI (RT112/84; SPLAM 4.9 nM): 100
- GDI (RT112/84; SPLAM 9.8 nM): 100
- GDI (RT112/84; SPLAM 19.5 nM): 100
- GDI (RT112/84; SPLAM 39.1 nM): 100
- GDI (RT112/84; SPLAM 78.1 nM): 100
- GDI (RT112/84; SPLAM 156.3 nM): 99
- GDI (RT112/84; SPLAM 312.5 nM): 44
- GDI (RT112/84; SPLAM 625 nM): 12
- GDI (RT112/84; SPLAM 1250 nM): −34**
- GDI (RT112/84; SPLAM 2500 nM): −76**
- GDI (RT112/84; SPLAM 5000 nM): −63**
- GDI (RT112/84; SPLAM 10000 nM): −74**
- GDI (RT112/84; SPLAM 20000 nM): −92**
- GDI (UMUC11; SPLAM 0.04 nM): 100
- GDI (UMUC11; SPLAM 0.1 nM): 100
- GDI (UMUC11; SPLAM 0.2 nM): 100
- GDI (UMUC11; SPLAM 0.3 nM): 100
- GDI (UMUC11; SPLAM 0.6 nM): 100
- GDI (UMUC11; SPLAM 1.2 nM): 100
- GDI (UMUC11; SPLAM 2.4 nM): 100
- GDI (UMUC11; SPLAM 4.9 nM): 100
- GDI (UMUC11; SPLAM 9.8 nM): 100
- GDI (UMUC11; SPLAM 19.5 nM): 100
- GDI (UMUC11; SPLAM 39.1 nM): 100
- GDI (UMUC11; SPLAM 78.1 nM): 100
- GDI (UMUC11; SPLAM 156.3 nM): 100
- GDI (UMUC11; SPLAM 312.5 nM): 73
- GDI (UMUC11; SPLAM 625 nM): 35
- GDI (UMUC11; SPLAM 1250 nM): 13
- GDI (UMUC11; SPLAM 2500 nM): 5
- GDI (UMUC11; SPLAM 5000 nM): 2
- GDI (UMUC11; SPLAM 10000 nM): 2
- GDI (UMUC11; SPLAM 20000 nM): 1
- GDI (SW900; SPLAM 0.04 nM): 100
- GDI (SW900; SPLAM 0.1 nM): 98
- GDI (SW900; SPLAM 0.2 nM): 94
- GDI (SW900; SPLAM 0.3 nM): 100
- GDI (SW900; SPLAM 0.6 nM): 100
- GDI (SW900; SPLAM 1.2 nM): 100
- GDI (SW900; SPLAM 2.4 nM): 100
- GDI (SW900; SPLAM 4.9 nM): 100
- GDI (SW900; SPLAM 9.8 nM): 100
- GDI (SW900; SPLAM 19.5 nM): 100
- GDI (SW900; SPLAM 39.1 nM): 100
- GDI (SW900; SPLAM 78.1 nM): 100
- GDI (SW900; SPLAM 156.3 nM): 100
- GDI (SW900; SPLAM 312.5 nM): 34
- GDI (SW900; SPLAM 625 nM): −3**
- GDI (SW900; SPLAM 1250 nM): −33**
- GDI (SW900; SPLAM 2500 nM): −61**
- GDI (SW900; SPLAM 5000 nM): −56**
- GDI (SW900; SPLAM 10000 nM): −58**
- GDI (SW900; SPLAM 20000 nM): −60**
